Measurements from paper PMC7311426, “An amphipathic peptide with antibiotic activity against multidrug-resistant Gram-negative bacteria” (Nature Communications, 2020).
Converted amounts (≈) assume the structure as drawn. Like-named read-outs stand apart in the source and are kept apart here. Residues, ends and D or L forms follow the SMILES beside them.

Experiments:
[1] = SPR binding to model membrane lipids; parameters: unit: 100 × RU/MW; conditions: mean of n = 3
Description: SPR experiments were performed on a Biacore T200 using an L1 sensor chip as previously described. Small unilamellar vesicles (SUVs) were prepared in PBS by sonication and extrusion. Lipids were dissolved in ethanol-free chloroform in 25 mL round-bottom flasks. 10% (mol/mol) of E. coli lipid A, diphosphoryl (Sigma-Aldrich, Cat # L5399) was added into 1,2-dimyristoyl-sn-glycero-3-phosphocholine (DMPC) (Auspep, Cat # 850345P) solution to make lipid A–DMPC mixtures, which were then deposited as a thin film by removal of the solvent (chloroform) under reduced pressure on a rotary evaporator and dried under high vacuum for at least 2 h. PBS was then added into each flask to give a 1 mM (DMPC) suspension, which was sonicated 5 min for five times. […] The SUVs were then injected into the flow cells of the L1 sensor chip for 2000 s at a low flow rate of 2 μL min^−1 to form a bilayer membrane model on the chip surface. Then, a series of peptide solutions (30–0.33 μM in 3-fold dilution), was injected across the flow cells at a flow rate of 30 μL min^−1, having an injection phase of 180 s, and a dissociation phase of 300 s. The binding responses (RU) were normalized by molecular weight (MW) of each peptide. The equation 100 × RU/MW was used for normalization.

[2] = tested on: B. subtilis; assay: microbe, parasite or virus in culture; conditions: for MIC: Bacillus subtilis
In short: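 Broth microdilution in MHB, 2-fold 12-point series from 128 or 64 down to 0.06 or 0.03 μg mL^−1, 5 × 10^5 CFU mL^−1. Extra runs in CAMHB per CLSI and in MHB with 1% agarose; n ≥ 6.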

[3] = tested on: E. coli AID#172; format: in vivo, E. coli in NMRI mice
Description: Peritonitis and UTI murine models were performed at the Department of Microbiology & Infection Control, Statens Serum Institute, Copenhagen, Denmark, under approval by the National Committee of Animal Ethics, Denmark, and adhered to the standards of EU Directive 2010/63/EU. The mouse pneumonia model was performed by Evotec Ltd, United Kingdom, under UK Home Office Licenses and with local ethical committee clearance. All animal studies were contracted by Adenium Biotech ApS.
(§1) Peptides were prepared in Ringer’s acetate pH 6.0 (vehicle) at 34 mg mL^−1. Comparator antibiotics included meropenem (Meronem®, AstraZeneca), polymyxin B sulfate (Sigma) and tobramycin (Novartis).
The E. coli peritonitis in vivo model was conducted using an E. coli AID#172 strain in female NMRI mice (Harlan) that were rendered neutropenic by injecting 0.5 mL cyclophosphamide solution (Apodan®) intraperitoneally for 4 days (~200 mg kg^−1) and 1 day (~100 mg kg^−1) prior to inoculation of infection. At time −1 h, mice were inoculated intraperitoneally with 0.5 mL of 2 × 10^6 CFU mL^−1 E. coli AID#172 suspension in the lateral lower quadrant of the abdomen. […] CFU counts were determined from blood and peritoneal fluid at 0 and 5 h after treatment. The mice were anesthetized with Zoletil® and blood was collected by axillary cut down. The mice were killed by cervical dislocation, a total of 2 mL sterile saline was injected i.p. and the abdomen gently massaged before it was opened, fluid sampled with a pipette, and collected for CFU counts on agar.

[4] = tested on: E. coli AID#172; format: in vivo, E. coli in NMRI mice; remark: listed apart in the source
Description: as §1
The E. coli thigh infection in vivo model was conducted using an E. coli AID#172 strain in female NMRI mice (Taconic) that were rendered neutropenic as above. At time −1 h, mice were inoculated intramuscularly in the quadriceps femoral muscle close to the femur of the left hind leg with 0.05 mL of a suspension of ~1–5 × 10^7 CFU mL^−1 of E. coli (fresh overnight colonies from 5% Horse Blood Agar plate suspended in sterile saline to ~10^8 CFU mL^−1, then diluted) with compound administered intravenously 1 and 12 h post infection (injection over 30 s with 10 mL kg^−1 of 0.6–15 mg kg^−1 AA139 or 5 mg kg^−1 polymyxin B). Colony counts were determined in thighs at 0 and 24 h post infection. The mice were killed by cervical dislocation, the skin was removed and the left hind leg from the hip joint to the hock was collected, cut into at least three parts and frozen at −80 °C. After thawing, the thighs were homogenized in 5 mL saline using a Dispomix® Drive. Each sample was then 10-fold diluted in saline and 20 μL spots were applied on 5% blood agar plates. All agar plates were incubated 18–24 h at 35 °C in ambient air.

[5] = tested on: E. coli ATCC 25922; assay: NPN uptake assay, outer membrane permeabilization; format: cell-based, Escherichia coli; conditions: Prism nonlinear fit, One site - specific binding with Hill slope, Bmax = 100
[6] = AA139 3.75 mg kg-1, Meropenem 40 mg kg-1, Dunnett's multiple comparisons test
[7] = MDR E. coli AID #172, AA139 3.75 mg kg-1, Meropenem 40 mg kg-1, mean of n = 3

**Q.** For colistin, which “SPR response, Mean1 (DMPC)” value ([1]; 1uM) is on record?
**A.** 7.037

**Q.** What about the “SPR response, Mean1 (DMPC)” value ([1]; 10uM) of the same molecule?
**A.** 58.5213

**Q.** What does the source list for `CC(C)[C@@H]1NC(=O)[C@H](Cc2ccc(O)cc2)NC(=O)[C@H](Cc2c[nH]c3ccccc23)NC(=O)[C@@H](NC(=O)[C@H](Cc2ccccc2)NC(=O)CN)CSSC[C@@H](C(=O)N[C@@H](CC(N)=O)C(=O)O)NC(=O)[C@H](CCCNC(=N)N)NC(=O)[C@H](CCCNC(=N)N)NC(=O)[C@H](Cc2ccc(O)cc2)NC(=O)[C@@H]2CSSC[C@H](NC1=O)C(=O)N[C@@H](C)C(=O)N[C@@H](CCCNC(=N)N)C(=O)N[C@@H](CCCNC(=N)N)C(=O)N[C@@H](CC(N)=O)C(=O)NCC(=O)N[C@@H](C)C(=O)N[C@@H](CCCNC(=N)N)C(=O)N[C@@H](C(C)C)C(=O)N2` [AA139] (HELM PEPTIDE1{G.F.C.W.Y.V.C.A.R.R.N.G.A.R.V.C.Y.R.R.C.N}$PEPTIDE1,PEPTIDE1,3:R3-20:R3|PEPTIDE1,PEPTIDE1,7:R3-16:R3$$$V2.0)?
**A.** BMD MIC [2]: 2 µg/mL; ED50 in blood ([3]; mouse, in vivo, iv): 1.55 mg/kg; ED50 in peritoneal fluid ([3]; mouse, in vivo, iv): 1.85 mg/kg; ED50 in thigh ([4]; mouse, in vivo, iv): 4.8 mg/kg

**Q.** For “polymyxin B [PolymyxinB, reference compound]”, which “SPR response, Mean1 (DMPC)” value ([1]; 1uM) is on record?
**A.** 28.3373

**Q.** What about the “SPR response, Mean1 (DMPC)” value ([1]; 10uM) of the same molecule?
**A.** 126.211

**Q.** And the “Log reduction in thigh CFU compared to saline control” value ([4]; 5 mg kg^−1, two i.v. doses)?
**A.** 3.13 log

**Q.** Which results are given for `C[C@@H](O)[C@H]1C(=O)N2C(C(=O)O)=C(S[C@@H]3CN[C@H](C(=O)N(C)C)C3)[C@H](C)[C@H]12` [Meropenem, meropenem, reference compound]?
**A.** h (Hill slope, best-fit value) [5]: 0.3497; Change of CFU levels in peritoneal fluid and blood vs vehicle ([3]; 40 mg kg^−1 i.v., not statistically significant): slight reduction; Blood 5hr, Mean Diff. vehicle vs. treatment [3, 6]: 0.6733; PF 5hr, Mean Diff. vehicle vs. treatment [3, 6]: 0.08333; Blood 5hr bacterial load, Mean [3, 7]: 3.163; PF 5 hr bacterial load, Mean [3, 7]: 4.56

**Q.** For `CNC(C)C1CCC(N)C(OC2C(N)CC(N)C(OC3OCC(C)(O)C(NC)C3O)C2O)O1` (centres unmarked) [Gentamicin, gentamicin, reference compound], which MIC ([2]; ATCC6051 / NRS744, read-out: BMD MIC) is on record?
**A.** 0.25 µg/mL (≈ 0.523 µM)

**Q.** What about the MIC ([2]; ATCC6633 / NRS231, read-out: BMD MIC) of the same molecule?
**A.** 0.5 µg/mL (≈ 1.05 µM)
